Measurements from ChEMBL document CHEMBL5338741, “Discovery of an In Vivo Chemical Probe for BCL6 Inhibition by Optimization of Tricyclic Quinolinones” (J Med Chem, 2023).

Tests used:
[1] = target: BCL-6/NCOR2 (Homo sapiens) (UniProt Q9Y618+P41182); conditions: HEK293T, time 6.0 hrs
[2] = target: B-cell lymphoma 6 protein (Homo sapiens, UniProt P41182)
BCL-6/NCOR2 = BCL-6/NCOR2 (Homo sapiens, UniProt P41182); format: cell-based, HEK293T
Description: Inhibition of C-terminal NanoLuc-fused BCL6 (unknown origin)/Halo-tagged SMRT (unknown origin) interaction transfected in HEK293T cells measured after 6 hrs by NanoBRET assay

Chain of BCL-6/NCOR2 (Homo sapiens) (Q9Y618 whole entry, looked up, other chains not shown): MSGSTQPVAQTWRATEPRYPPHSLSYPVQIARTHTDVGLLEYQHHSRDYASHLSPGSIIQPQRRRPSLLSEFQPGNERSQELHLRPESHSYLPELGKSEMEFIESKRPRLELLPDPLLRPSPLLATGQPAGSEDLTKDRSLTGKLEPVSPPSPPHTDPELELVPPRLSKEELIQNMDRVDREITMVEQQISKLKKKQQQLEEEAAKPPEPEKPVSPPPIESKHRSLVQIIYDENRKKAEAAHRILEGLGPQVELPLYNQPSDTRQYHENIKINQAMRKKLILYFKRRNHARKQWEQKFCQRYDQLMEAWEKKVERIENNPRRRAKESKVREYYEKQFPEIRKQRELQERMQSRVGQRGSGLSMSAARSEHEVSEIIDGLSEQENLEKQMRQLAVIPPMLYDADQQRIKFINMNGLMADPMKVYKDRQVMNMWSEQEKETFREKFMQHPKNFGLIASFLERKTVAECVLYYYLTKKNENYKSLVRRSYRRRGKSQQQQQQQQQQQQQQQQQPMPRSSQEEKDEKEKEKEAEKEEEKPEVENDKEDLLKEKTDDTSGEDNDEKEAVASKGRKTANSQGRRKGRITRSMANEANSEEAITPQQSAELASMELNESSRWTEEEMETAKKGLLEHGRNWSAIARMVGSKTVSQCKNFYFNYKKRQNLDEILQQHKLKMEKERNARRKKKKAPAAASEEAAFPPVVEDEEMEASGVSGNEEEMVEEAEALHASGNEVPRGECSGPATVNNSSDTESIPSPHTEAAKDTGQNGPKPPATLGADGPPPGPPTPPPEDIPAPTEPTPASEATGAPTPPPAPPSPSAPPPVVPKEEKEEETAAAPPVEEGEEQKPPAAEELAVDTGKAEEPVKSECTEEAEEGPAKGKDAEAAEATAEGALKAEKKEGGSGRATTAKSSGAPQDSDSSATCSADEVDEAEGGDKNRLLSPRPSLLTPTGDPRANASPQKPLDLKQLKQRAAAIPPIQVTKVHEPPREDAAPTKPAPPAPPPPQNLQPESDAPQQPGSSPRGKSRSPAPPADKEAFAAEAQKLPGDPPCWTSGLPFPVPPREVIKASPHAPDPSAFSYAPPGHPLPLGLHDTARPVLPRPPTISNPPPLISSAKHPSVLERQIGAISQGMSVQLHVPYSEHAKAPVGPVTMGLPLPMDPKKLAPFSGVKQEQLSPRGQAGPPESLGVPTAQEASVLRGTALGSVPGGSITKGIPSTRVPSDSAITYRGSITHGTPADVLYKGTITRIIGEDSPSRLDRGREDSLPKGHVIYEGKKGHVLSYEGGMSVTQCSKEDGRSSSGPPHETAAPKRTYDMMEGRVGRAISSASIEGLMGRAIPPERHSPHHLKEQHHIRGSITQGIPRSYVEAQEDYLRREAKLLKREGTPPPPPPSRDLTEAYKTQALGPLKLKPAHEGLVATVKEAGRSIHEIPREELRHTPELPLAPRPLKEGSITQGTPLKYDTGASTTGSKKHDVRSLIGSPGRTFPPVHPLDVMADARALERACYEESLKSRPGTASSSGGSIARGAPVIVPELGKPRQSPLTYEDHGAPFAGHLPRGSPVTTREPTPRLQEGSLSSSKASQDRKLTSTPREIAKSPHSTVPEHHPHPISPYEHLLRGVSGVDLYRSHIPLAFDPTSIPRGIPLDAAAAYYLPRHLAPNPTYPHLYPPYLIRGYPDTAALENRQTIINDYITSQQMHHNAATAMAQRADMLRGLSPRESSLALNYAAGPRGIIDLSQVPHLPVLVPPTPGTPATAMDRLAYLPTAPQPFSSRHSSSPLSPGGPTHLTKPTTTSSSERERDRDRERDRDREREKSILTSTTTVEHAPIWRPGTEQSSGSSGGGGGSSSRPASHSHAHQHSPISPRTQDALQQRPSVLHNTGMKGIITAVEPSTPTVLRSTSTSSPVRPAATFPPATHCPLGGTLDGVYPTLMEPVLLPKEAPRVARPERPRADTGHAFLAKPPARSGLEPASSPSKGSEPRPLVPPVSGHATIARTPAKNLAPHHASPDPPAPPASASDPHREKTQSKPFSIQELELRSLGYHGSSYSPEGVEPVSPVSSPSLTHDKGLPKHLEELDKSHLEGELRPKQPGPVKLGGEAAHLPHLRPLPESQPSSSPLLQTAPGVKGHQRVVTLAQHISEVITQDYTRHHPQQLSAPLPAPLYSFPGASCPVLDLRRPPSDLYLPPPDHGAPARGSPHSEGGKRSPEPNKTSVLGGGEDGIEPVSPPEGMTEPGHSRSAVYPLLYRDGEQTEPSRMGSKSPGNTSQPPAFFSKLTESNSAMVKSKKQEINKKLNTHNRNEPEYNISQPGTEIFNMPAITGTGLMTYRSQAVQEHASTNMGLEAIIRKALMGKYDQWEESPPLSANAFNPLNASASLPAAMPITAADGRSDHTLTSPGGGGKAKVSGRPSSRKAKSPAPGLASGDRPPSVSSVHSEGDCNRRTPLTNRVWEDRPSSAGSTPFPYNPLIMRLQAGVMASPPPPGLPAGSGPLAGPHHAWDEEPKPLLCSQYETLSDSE

Work on `Cn1c(=O)c2c(c3cc(Nc4nc(N5CC(F)(F)C5)ncc4Cl)ccc31)N[C@@H](C1CC1)C(F)(F)CO2` yielded a fIC50 [1] of 8.9 nM and a fIC90 [1] of 50 nM.
`Cn1c(=O)c2c(c3cc(Nc4nc(N5C6CCC5COC6)ncc4Cl)ccc31)N[C@@H](C1CC1)C(F)(F)CO2` was tested, and the IC90 [1] was 3.2 nM, the fIC50 [1] was 143 nM and the fIC90 [1] was 42 nM.
Work on `Cn1c(=O)c2c(c3cc(Nc4ccnc(F)c4Cl)ccc31)N[C@@H](C1CC1)C(F)(F)CO2` yielded a fIC50 [1] of 6.8 nM and a fIC90 [1] of 44 nM.
`CC(=O)N1C2CCC1CN(c1ncc(Cl)c(Nc3ccc4c(c3)c3c(c(=O)n4C)OCC(F)(F)[C@H](C4CC4)N3)n1)C2` showed an IC50 [2] of 1.9 nM and an IC50 (BCL-6/NCOR2) of 41 nM.
With `CC(=O)N1CC2CCC(C1)N2c1ncc(Cl)c(Nc2ccc3c(c2)c2c(c(=O)n3C)OCC(F)(F)[C@H](C3CC3)N2)n1` the IC50 [2] was 0.9 nM and the IC50 (BCL-6/NCOR2) was 26.9 nM.
